Measurements reported in US20120264827A1, “SULFANYLAMIDE DERIVATIVES, USES THEREOF AND COMPOSITIONS COMPRISING THEM” (YISSUM RESEARCH DEVELOPMENT COMPANY OF THE HEBREW …, priority 2009, published 2012).
Read-outs that look alike come from different tables or passages of the source.

Legend:
[1] = system: maximal electroshock seizure (MES); assay: Maximal electroshock seizure test (MES), mice, intraperitoneal; assay type: in vivo; conditions: ip;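 also: adult male CF no. 1 albino mice of 18–25 g, given compound intraperitoneally as a 0.5% methylcellulose suspension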
[2] = system: subcutaneous metrazol (pentylenetetrazol) seizure; assay: Subcutaneous metrazol seizure threshold test (scMet), mice, intraperitoneal; assay type: in vivo; conditions: ip;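 also: adult male CF no. 1 albino mice weighing 18-25 g, dosed intraperitoneally with compounds suspended in 0.5% methylcellulose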
[3] = system: subcutaneous metrazol (pentylenetetrazol) seizure; conditions: for PI, protective index (PI = TD50/ED50) in the scMet test: male, Sprague-Dawley, rat, in vivo, po
Method: (§1) The evaluation of the anticonvulsant activity in the maximal electroshock seizure test (MES) and subcutaneous metrazol seizure threshold test (scMet) and the determination of neurotoxicity in the rotorod test, positional sense test, and others were performed according to the protocols described in White, H. S., Woodhead J. H., Wilcox K. S., Stables J. P., Kupferberg H. J., Wolf H. H., Discovery and Preclinical Development of Antiepileptic Drugs; 5th ed.; Lippincott Williams &Wilkins: New york, 2002; 36-48.
(§2) The tested compounds were suspended in 0.5% methylcellulose and administered (a) intraperitioneally (ip) to adult male CF no. 1 albino mice (18-25 g) in volume of 0.01 mL/g body weight and (b) orally to adult male Sprague-Dawley albino rats (100-150 g) in volume of 0.04 mL per 10 g of body weight. The pentylenetetrazol solution at convulsing dose was prepared by sufficient dissolution of pentylenetetrazol in 0.9% saline to make 0.85% solution for administration to mice and a 2.82% solution for administration to rats.
(§3) The TD50 was determined by varying the dose of the tested compounds until four points were established between the dose level that induced no signs of minimal motor impairment in any of the animals and the dose at which all the animals were considered impaired. […] The PIs were calculated by dividing the TD50 by the ED50.

in vivo = conditions: male, Sprague-Dawley, rat, po
Method: (§4) The tested compounds were suspended in 0.5% methylcellulose and administered (a) intraperitioneally (ip) to adult male CF no. 1 albino mice (18-25 g) in volume of 0.01 mL/g body weight and (b) orally to adult male Sprague-Dawley albino rats (100-150 g) in volume of 0.04 mL per 10 g of body weight.
as §3

[4] = system: subcutaneous metrazol (pentylenetetrazol) seizure; assay: animal or person; conditions: Rattus norvegicus, po, read-out: scMet ED50
Method: as §1, §2, §3

[5] = system: maximal electroshock seizure (MES); assay: Maximal electroshock seizure test (MES), rats, oral; conditions: for responders at 30 mg/kg / ED50: Rattus norvegicus, po; for responders at 30 mg/kg: read-out: Anti-MES activity (number of animals protected/number of animals tested); for ED50: read-out: MES ED50, rats dosed orally; for ED50 / MES ED50: interval in parentheses = 95% confidence interval; for MES ED50: rats dosed orally;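 as to all read-outs here: adult male Sprague-Dawley rats received test compounds by mouth as a suspension in 0.5% methylcellulose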
Method: as §4, §3

[6] = system: maximal electroshock seizure (MES); conditions: male, Sprague-Dawley, rat, in vivo, po
Method: as §4, §3

[7] = 30 mg/kg, 0.5 h after administration
[8] = 30 mg/kg, 4 h after administration
[9] = 100 mg/kg, 0.5 h after administration
[10] = 100 mg/kg, 4 h after administration
[11] = 300 mg/kg, 0.5 h after administration
[12] = 300 mg/kg, 4 h after administration

Compound | MES (number of animals protected/number of animals tested) [1, 7] | MES (number of animals protected/number of animals tested) [1, 8] | MES (number of animals protected/number of animals tested) [1, 9] | MES (number of animals protected/number of animals tested) [1, 10] | MES (number of animals protected/number of animals tested) [1, 11] | MES (number of animals protected/number of animals tested) [1, 12] | scMet (number of animals protected/number of animals tested) [2, 7] | scMet (number of animals protected/number of animals tested) [2, 8] | scMet (number of animals protected/number of animals tested) [2, 9] | scMet (number of animals protected/number of animals tested) [2, 10] | scMet (number of animals protected/number of animals tested) [2, 11] | scMet (number of animals protected/number of animals tested) [2, 12] | melting point [°C] | TD50 (in vivo) [mg/kg] | responders at 30 mg/kg ([5]; 0.5 h) [%] | responders at 30 mg/kg ([5]; 1 h) [%] | responders at 30 mg/kg ([5]; 2 h) [%] | responders at 30 mg/kg ([5]; 4 h) [%] | responders at 30 mg/kg ([5]; […]) [%] | ED50 [5] [mg/kg] | further results
CCC(CC)C(=O)NCc1ccc(S(N)(=O)=O)cc1 [Compound 28, 2-Ethyl-N-(4-sulfamoyl-benzyl)-butyramide] | 0/1 | 0/1 | 3/3 | 1/3 | 1/1 | 1/1 | 0/1 0/1 0/1 | 0/1 0/1 0/1 | 0/1 0/1 0/1 | 0/1 0/1 0/1 | 0/1 0/1 0/1 | 0/1 0/1 0/1 | 148 to 150 | > 500 | 25 | 50 | 0 | 0 | 25 | 24.7 | PI, protective index (PI = TD50/ED50) in the scMet test [3]: >2; ED50 [4]: > 250 mg/kg
CC(C)(C)C(=O)Nc1ccc(S(N)(=O)=O)cc1 [Compound 9, 2,2-Dimethyl-N-(4-sulfamoyl-phenyl)-propionamide] | 0/1 | 0/1 | 1/3 | 2/3 | 1/1 | 1/1 | 0/1 0/1 0/1 | 0/1 0/1 0/1 | 0/1 0/1 0/1 | 0/1 0/1 0/1 | 0/1 0/1 0/1 | 0/1 0/1 0/1 | 228 to 229 | > 500 | 0 | 75 | 50 | 100 | 0 | 42 | PI, protective index (PI = TD50/ED50) in the MES test [6]: >11.8; MES ED50 [5]: 42.2 (22.9-86.4) mg/kg
CC(C)(C)CC(=O)NCc1ccc(S(N)(=O)=O)cc1 [Compound 27, 3,3-Dimethyl-N-(4-sulfamoyl-benzyl)-butyramide] | 0/1 | 0/1 | 0/3 | 1/3 | 0/1 | 1/1 | 0/1 0/1 0/1 | 0/1 0/1 0/1 | 0/1 0/1 0/1 | 0/1 0/1 0/1 | 0/1 0/1 0/1 | 0/1 0/1 0/1 | 205 to 207 |  | 0 | 25 | 50 | 50 | 0 |  | 
CCCC(C(=O)Nc1ccc(S(N)(=O)=O)cc1)C(C)CC (centres unmarked) [Compound 21, 2-propyl-3-Methyl-N-(4-sulfamoyl-phenyl)-pentanamide] | 0/1 | 0/1 | 1/3 | 2/3 | 1/1 | 1/1 | 0/1 0/1 0/1 | 0/1 0/1 0/1 | 0/1 0/1 0/1 | 0/1 0/1 0/1 | 0/1 0/1 0/1 | 0/1 0/1 0/1 | 223 to 226 |  | 25 | 25 | 50 | 25 | 0 |  | 
CCC(CC)C(=O)Nc1ccc(S(N)(=O)=O)cc1 [Compound 11, 2-Ethyl-N-(4-sulfamoyl-phenyl)-butyramide] | 1/1 | 1/1 | 3/3 | 3/3 | 1/1 | 1/1 | 0/1 0/1 0/1 | 0/1 0/1 0/1 | 0/1 0/1 0/1 | 0/1 0/1 0/1 | 0/1 0/1 0/1 | 0/1 0/1 0/1 |  | > 500 | 75 | 100 | 100 | 100 | 25 | ~10 | activity in the scMet test ([3]; doses up to 250 mg/kg): inactive; PI, protective index (PI = TD50/ED50) in the scMet test [3]: >2; ED50 [4]: > 250 mg/kg; anticonvulsant potency relative to valproic acid (times greater) ([5]; rat-MES, versus VPA): 49 times; rat-MES PI relative to VPA (times higher) ([5]; rat-MES, versus VPA): about 31 times; MES ED50 [5]: 9.9 (6.5-14.5) mg/kg
CCCC(C)C(=O)Nc1ccc(S(N)(=O)=O)cc1 (centres unmarked) [Compound 16, 2-Methyl-N-(4-sulfamoyl-phenyl)-pentanamide] | 0/1 | 0/1 | 0/3 | 2/3 | 0/1 | 1/1 | 0/1 0/1 0/1 | 0/1 0/1 0/1 | 0/1 0/1 0/1 | 0/1 0/1 0/1 | 0/1 0/1 0/1 | 0/1 0/1 0/1 |  | > 500 | 25 | 100 | 100 | 100 | 25 | ~10 | PI, protective index (PI = TD50/ED50) in the MES test [6]: >46.3; PI, protective index (PI = TD50/ED50) in the scMet test [3]: >2; ED50 [4]: > 250 mg/kg
NS(=O)(=O)c1ccc(NC(=O)Cc2ccccc2)cc1 [Compound 30, 2-Phenyl-N-(4-sulfamoyl-phenyl)-acetamide] | 0/1 | 0/1 | 3/3 | 3/3 | 1/1 | 1/1 | 0/1 0/1 0/1 | 0/1 0/1 0/1 | 0/1 0/1 0/1 | 0/1 0/1 0/1 | 0/1 0/1 0/1 | 0/1 0/1 0/1 |  | > 500 | 0 | 100 | 75 | 100 | 0 | 16.1 | PI, protective index (PI = TD50/ED50) in the MES test [6]: >31.0; PI, protective index (PI = TD50/ED50) in the scMet test [3]: >2; ED50 [4]: > 250 mg/kg
CCC(C)C(CC)C(=O)Nc1ccc(S(N)(=O)=O)cc1 (centres unmarked) [Compound 19, 2-Ethyl-3-methyl-N-(4-sulfamoyl-phenyl)-pentanamide] | 0/1 | 0/1 | 3/7 | 3/3 | 4/5 | 1/1 | 0/1 0/1 0/1 | 0/1 0/1 0/1 | 0/1 0/1 0/1 | 0/1 0/1 0/1 | 0/1 0/1 0/1 | 0/1 0/1 0/1 | 203 to 205 |  | 0 | 75 | 100 | 75 | 0 |  | 
